A short description of data set [1]: Pharmacokinetics in MDA-MB-231 xenograft tumor-bearing mice (LC-MS/MS). Format: in vivo. The source says:
Analytical LC-MS/MS conditions: Compound levels in plasma and tissues for in vivo pharmacokinetic (PK) studies were monitored by LC-MS/MS using an AB Sciex (Framingham, MA) 6500^+ QTRAP® mass spectrometer coupled to a Shimadzu (Columbia, MD) Prominence LC. Analytes were detected with the mass spectrometer in positive MRM (multiple reaction monitoring) mode by following the precursor to fragment ion transition 705.3→592.3. An Agilent C18 XDB column (5 micron, 50×4.6 mm) was used for chromatography for PK studies with the following conditions: Buffer A: dH2O+0.1% formic acid, Buffer B: methanol+0.1% formic acid, 0-1.0 min 5% B, 1.0-2 min gradient to 98% B, 2-3.0 min 98% B, 3.0-3.2 min gradient to 5% B, 3.2-4.5 min 5% B. Tolbutamide (transition 271.2 to 91.2) from Sigma (St. Louis, MO) was used as an internal standard (IS). Pharmacokinetic studies were performed in MDA-MB-231 xenograft tumor-bearing female NOD-SCID mice. ERX-41 was given either orally or intraperitoneally (10 mg/kg single dose). Animals were sacrificed in groups of three, blood was obtained by cardiac puncture at each time point (0, 0.5, 1.5, 3, 6 and 24 hours post dose) using the anticoagulant EDTA and plasma isolated by centrifugation. Tumor and liver were also collected and snap frozen in liquid nitrogen after rinsing with PBS to remove surface adhering blood. Tissues were homogenized in a 3-fold volume (weight by volume) of PBS to generate a homogenate. 100 μl of plasma or tissue homogenate was mixed with 200 μl of methanol containing 0.15% formic acid and 15 ng/mL tolbutamide IS. The samples were vortexed 15 sec, incubated at room temp for 10 min and spun twice at 16,100×g 4° C. in a refrigerated microcentrifuge. The amount of compound present in plasma, tumor and liver was quantified by LC-MS/MS to determine the amount of compound in each matrix. Standard curves were generated using blank plasma (Bioreclamation, Westbury, NY, RRID:SCR_004728) or blank tissue homogenate spiked with known concentrations of test compound and processed as described above. The concentrations of drug in each time-point sample were quantified using Analyst 1.7.1 software (Sciex). A value of 3-fold above the signal obtained from blank plasma or tissue homogenate was designated the limit of detection (LOD). The lower limit of quantitation (LLOQ) was defined as the lowest concentration at which back calculation yielded a concentration within 20% of theoretical and which was above the LOD. The LLOQ for plasma and tumor was 0.1 ng/mL and 1 ng/mL in liver. PK parameters, Cmax, Tmax, Terminal T½ (calculated as Ln(2)/λz), AUClast (area under the concentration time curve to the last measured value determined by linear trapezoidal rule), Cl (clearance measured as Dose/AUCinf), and Vz (volume of distribution based on the terminal phase=Dose/AUCinf*λz) were calculated using the noncompartmental analysis tool of Phoenix WinNonLin version 8.01 (Certara/Pharsight, Sunnyvale, CA, RRID:SCR_003163).

Another data set deals with SUM-159 cells. As to the kind of experiment: CellTiter-Glo, SUM-159 WT cells (mCherry-RAMP4). Conditions: Homo sapiens, SUM159; SUM-159 stably transfected mCherry-RAMP4, CellTiter-Glo. Format: cell-based. On the procedure:
Cell viability assays: Cells were seeded in 96-well plates (2×10^3 cells/well) one day before the treatment. Cells were treated with varying concentrations of ERX-41 or ERX-11 analogs for 3-6 days. Then effects of ERX-41 or ERX-11 analogs on cell viability were measured in triplicate or sextuplicate with multiple biological replicates using the WST-1 (Promega), MTT as previously described^33 or CellTiter-Glo 2.0 (Promega) assays.

For data set [2], the system named is ovarian cancer PDX (OCa-PDX-38). Kind of data set: Ovarian cancer PDX OCa-PDX-38. In kind it is in vivo, NSG mice. The settings on record: 10 mg/kg daily. How it is done: Animal Studies: All animal experiments were performed using UTHSA and UTSW IACUC approved protocols. For cell based xenograft tumor assays, TNBC cells (2×10^5-2×10^6) were mixed with an equal volume of matrigel and implanted in the mammary fat pads of 6-week-old female athymic nude mice as described^33. BALB/c mice were used for D2A1 syngeneic model. Once tumors reached measurable size, mice were divided into control (vehicle) and ERX-41 (10 mg/kg/oral) treatment groups. Mice bearing TNBC PDX tumors were purchased from Jackson laboratory (TM00089; TM00096; TM00098). TNBC PDX line UTPDX0001 establishment was earlier described^38. WHIM-20 ER+PDX model was purchased from Horizon Labs. OCa-PDX-38 was received from UTHSA ObGyn tissue procurement core. When tumors reached ˜750 mm^3 they were dissected into 2 mm^3 pieces and implanted into the mammary fat pads of 6 weeks old female SCID or NSG mice. When the tumor volume reached ˜200 mm^3, mice were randomized for treatment. The mice were monitored daily for adverse toxic effects and tumor volume was measured every 3-4 days using calipers. For establishing ES2 tumors, ES2/GFP/LUC cells were injected i.p. and tumors were measured twice a week using Xenogen in vivo imaging system. […] The mice were monitored daily for adverse toxic effects. […] The sections were scored by two independent evaluators blinded to the patient's clinical status.

Another data set has as its system TNBC. As to the kind of experiment: ER stress, cell death and lysosomes in TNBC (discussion, no method). Format: cell-based.

For the compound `CC(C)COc1cc(C(=O)Nc2ccc(C(=O)N[C@H]3CC[C@H](C)CC3)cc2OCC(C)C)ccc1NC(=O)c1ccc([N+](=O)[O-])c(OCCO)c1` [ERX-41], in data set [1] (10 mg/kg single dose), the “drug level in treated tumor tissues at 24 h” value is “detectable levels of ERX-41 at 24 h”. In addition, the oral bioavailability result in data set [1] (mouse, in vivo, po) is listed as “orally bioavailable”. Moreover, the “time to detection in liver and kidneys” value in data set [1] (oral administration) is no more than 4 h. For the same compound, in data set [1] (oral or intraperitoneal administration), the “time to detection in subcutaneous MDA-MB-231 xenograft tumors” value was no more than 1.5 h. Moreover, in data set [1] (oral, 10 mg/kg single dose), the “time of peak detectable levels in plasma” value is recorded as 4 h. The IC50 in the data set on SUM-159 cells is roughly 200 nM. Besides, in data set [2], the “activity against OCa-PDX-38” value is “has activity against”. In the data set with TNBC, the changes in lysosomes result was “no significant changes in lysosomes”.

What is called IC50 is the concentration that inhibits the measured activity by half. A high value points to a need for much substance.

For the origin of these results see US20250114313A1, “OLIGO-BENZAMIDE ANALOGS AND THEIR USE IN CANCER TREATMENT” (BOARD OF REGENTS, THE UNIVERSITY OF TEXAS SYSTEM, priority 2022, published 2025).
